Structures can show the parent of a compound that is named as a salt.
Target: T1, human HSD17B13 (Homo sapiens, UniProt Q7Z5P4)
T1 sequence (Q7Z5P4 20-300): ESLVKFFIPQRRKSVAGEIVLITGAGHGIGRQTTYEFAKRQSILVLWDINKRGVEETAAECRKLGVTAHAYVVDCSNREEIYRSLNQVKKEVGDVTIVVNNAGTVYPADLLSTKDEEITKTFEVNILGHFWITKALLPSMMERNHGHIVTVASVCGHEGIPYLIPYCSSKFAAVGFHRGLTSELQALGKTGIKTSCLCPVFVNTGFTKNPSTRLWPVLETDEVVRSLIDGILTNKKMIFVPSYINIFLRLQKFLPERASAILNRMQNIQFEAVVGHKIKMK
Experiment: Substrate screening of steroid and bioactive lipid libraries against purified recombinant HSD17B13 (NADH-linked luciferase assay)
Assay type: biochemical
Details: for HSD17B13 Enzymatic Activity Relative Light Units: 500 μM NAD+, 100 ng enzyme, 3 hours at 23° C.; for HSD17B13 Enzymatic Activity Percent Estradiol Control: normalized to 50 μM estradiol after subtraction of 5% DMSO
Protocol: To understand the functional consequences of premature truncation of the HSD17B13 protein due to rs72613567:TA (the associated variant, rs72613567, is an insertion of an adenine adjacent to the donor splice site of exon six (TA allele)), the enzymatic activity of isoforms A and D was evaluated in vitro using recombinant protein and nicotinamide […] dinucleotide as cofactor. Reactions were performed in a final volume of 40 μl of assay buffer (0.2 M Tris-HCl, pH 7.5) which contained 500 μM NAD^+, 5 μM bioactive lipid or 50 μM steroid (all in a final concentration of 5% DMSO), and 100 ng of recombinant human HSD17B13. Reactions were incubated for 3 hours, at 23° C., after which an equal volume detection reagent was added. Following a 1 hour incubation at 23° C., the relative light units (RLUs) were measured on an Envision Plate Reader (Perkin Elmer). Raw RLU values were normalized as percent of control (50 μM estradiol) following subtraction of negative control (5% DMSO) using the following formula: Percent of control (POC)=100×(Sample (RLU)−Negative CTRLaverage)/(Positive CTRLaverage−Negative CTRLaverage).

[1] = Bioactive Lipid Library, 5 μM bioactive lipid (Estradiol Control 50 μM)
[2] = Bioactive Lipid Library, 5 μM bioactive lipid

CCCCC[C@H](O)/C=C/C=C\C/C=C\C/C=C\CCCC(=O)O (racemic) [(±)15-HETE]
HSD17B13 Enzymatic Activity Relative Light Units [1]: 47880 RLU
HSD17B13 Enzymatic Activity Percent Estradiol Control [2]: 30.81%

CC/C=C\C[C@H]1O[C@H]1C/C=C\C/C=C\C/C=C\C/C=C\CCC(=O)O (racemic) [(±)16(17)-EpDPA]
HSD17B13 Enzymatic Activity Relative Light Units [1]: 274120 RLU
HSD17B13 Enzymatic Activity Percent Estradiol Control [2]: −0.71%

CCC(O)C(O)C/C=C\C/C=C\C/C=C\C/C=C\CCCC(=O)O (racemic) [(±)17(18)-DiHETE]
HSD17B13 Enzymatic Activity Relative Light Units [1]: 369120 RLU
HSD17B13 Enzymatic Activity Percent Estradiol Control [2]: 3.33%

CCC1OC1C/C=C\C/C=C\C/C=C\C/C=C\CCCC(=O)O (racemic) [(±)17(18)-EpETE]
HSD17B13 Enzymatic Activity Relative Light Units [1]: 316240 RLU
HSD17B13 Enzymatic Activity Percent Estradiol Control [2]: 2.19%

CC/C=C\CC(O)/C=C/C=C\C/C=C\C/C=C\C/C=C\CCC(=O)O (racemic) [(±)17-HDHA]
HSD17B13 Enzymatic Activity Relative Light Units [1]: 492440 RLU
HSD17B13 Enzymatic Activity Percent Estradiol Control [2]: 15.29%

CCC(O)C(O)C/C=C\C/C=C\C/C=C\C/C=C\C/C=C\CCC(=O)O (racemic) [(±)19(20)-DiHDPA]
HSD17B13 Enzymatic Activity Relative Light Units [1]: 827600 RLU
HSD17B13 Enzymatic Activity Percent Estradiol Control [2]: 37.95%

CC[C@H]1O[C@H]1C/C=C\C/C=C\C/C=C\C/C=C\C/C=C\CCC(=O)O (racemic) [(±)19(20)-EpDPA]
HSD17B13 Enzymatic Activity Relative Light Units [1]: 300600 RLU
HSD17B13 Enzymatic Activity Percent Estradiol Control [2]: 1.38%

CCC(O)/C=C/C=C\C/C=C\C/C=C\C/C=C\C/C=C\CCC(=O)O (racemic) [(±)20-HDHA]
HSD17B13 Enzymatic Activity Relative Light Units [1]: 1400640 RLU
HSD17B13 Enzymatic Activity Percent Estradiol Control [2]: 82.82%

CC(C)OC(=O)CCC/C=C/C[C@@H]1[C@@H](/C=C/[C@@H](O)COc2cccc(C(F)(F)F)c2)[C@H](O)C[C@@H]1O (relative stereo) [5-trans Fluprostenol isopropyl ester]
HSD17B13 Enzymatic Activity Relative Light Units [1]: 551400 RLU
HSD17B13 Enzymatic Activity Percent Estradiol Control [2]: 21.21%

CCCCC/C=C\C[C@@H](O)/C=C/C=C/C=C/[C@@H](O)CCCC(=O)O (relative stereo) [6-trans Leukotriene B4]
HSD17B13 Enzymatic Activity Relative Light Units [1]: 1209480 RLU
HSD17B13 Enzymatic Activity Percent Estradiol Control [2]: 68.61%

CC/C=C/C[C@H](O)/C=C/[C@@H]1[C@@H](C/C=C\CCCC(=O)O)[C@@H](O)C[C@H]1O (relative stereo) [17-trans Prostaglandin F3α]
HSD17B13 Enzymatic Activity Relative Light Units [1]: 371720 RLU
HSD17B13 Enzymatic Activity Percent Estradiol Control [2]: 7.01%

CCCCC[C@H](O)/C=C/[C@H]1[C@H](O)CC(=O)[C@@H]1CCCCC(=O)O [2,3-dinor Prostaglandin E1]
HSD17B13 Enzymatic Activity Relative Light Units [1]: 344240 RLU
HSD17B13 Enzymatic Activity Percent Estradiol Control [2]: 4.83%

CCCCC[C@H](O)/C=C/[C@H]1OC(O)C[C@H](O)[C@@H]1CCCCC(=O)O (stereo partly shown) [2,3-dinor Thromboxane B1]
HSD17B13 Enzymatic Activity Relative Light Units [1]: 364840 RLU
HSD17B13 Enzymatic Activity Percent Estradiol Control [2]: 3.01%

CCCCC[C@H](O)/C=C/[C@@H]1[C@@H](CC(=O)CCC(=O)O)[C@@H](O)C[C@H]1O [2,3-dinor-6-keto Prostaglandin F1α (sodium salt)]
HSD17B13 Enzymatic Activity Relative Light Units [1]: 341800 RLU
HSD17B13 Enzymatic Activity Percent Estradiol Control [2]: 4.64%

CCCCC[C@H](O)/C=C/[C@@H]1[C@H](C/C=C\CC(=O)O)[C@@H](O)C[C@H]1O [2,3-dinor-8-iso Prostaglandin F2α]
HSD17B13 Enzymatic Activity Relative Light Units [1]: 230040 RLU
HSD17B13 Enzymatic Activity Percent Estradiol Control [2]: −4.19%

CCCCC[C@H](O)/C=C/[C@@H]1[C@@H](C/C=C\CC(=O)O)[C@@H](O)C[C@@H]1O [2,3-dinor-11β-Prostaglandin F2α]
HSD17B13 Enzymatic Activity Relative Light Units [1]: 265000 RLU
HSD17B13 Enzymatic Activity Percent Estradiol Control [2]: −1.43%

C[C@]12CC[C@H]3[C@@H]([C@H]4C[C@H]4[C@]4(O)C[C@@H](O)CC[C@]34C)[C@@H]1[C@@H]1C[C@@H]1C2=O [3b,5-Dihydroxy-6b,7b:15b,16b-dimethylene-5b-androstan17-one]
HSD17B13 Enzymatic Activity Relative Light Units (Steroid Library, 50 μM steroid): 183120 RLU
HSD17B13 Enzymatic Activity Percent Estradiol Control (Steroid Library, 50 μM steroid): 0.39%

CC/C=C\C/C=C\C/C=C\C/C=C\CC1OC1CCCC(=O)OC (stereo not shown) [5(6)-EpETE methyl ester]
HSD17B13 Enzymatic Activity Relative Light Units [1]: 337400 RLU
HSD17B13 Enzymatic Activity Percent Estradiol Control [2]: 0.93%

CCCCC/C=C\C\C=C/C=C/C=C/[C@@H](O)[C@@H](O)CCCC(=O)O [5(S),6(R)-DiHETE]
HSD17B13 Enzymatic Activity Relative Light Units [1]: 166040 RLU
HSD17B13 Enzymatic Activity Percent Estradiol Control [2]: 1.66%

CCCCC/C=C\C\C=C/C=C/C=C/[C@H](O)[C@@H](O)CCCC(=O)O [5(S),6(S)-DiHETE]
HSD17B13 Enzymatic Activity Relative Light Units [1]: 309080 RLU
HSD17B13 Enzymatic Activity Percent Estradiol Control [2]: 4.07%

CCCCC[C@H](O)/C=C/C=C\C/C=C\C=C\[C@@H](O)CCCC(=O)O [5(S),15(S)-DiHETE]
HSD17B13 Enzymatic Activity Relative Light Units [1]: 486600 RLU
HSD17B13 Enzymatic Activity Percent Estradiol Control [2]: 14.86%

CC/C=C\C/C=C\C/C=C\C/C=C\C=C\[C@@H](O)CCCC(=O)O [5(S)-HEPE]
HSD17B13 Enzymatic Activity Relative Light Units [1]: 429120 RLU
HSD17B13 Enzymatic Activity Percent Estradiol Control [2]: 10.58%

CCCCC/C=C\C/C=C\C/C=C\C=C\[C@@H]1CCCC(=O)O1 [5(S)-HETE lactone]
HSD17B13 Enzymatic Activity Relative Light Units [1]: 288400 RLU
HSD17B13 Enzymatic Activity Percent Estradiol Control [2]: 0.12%

CCCCC/C=C\C/C=C\C/C=C\C=C\[C@@H](O)CCCC(=O)O [5(S)-HETE]
HSD17B13 Enzymatic Activity Relative Light Units [1]: 430800 RLU
HSD17B13 Enzymatic Activity Percent Estradiol Control [2]: 10.71%

CCCCC/C=C\C/C=C\C/C=C\C=C\[C@H](CCCC(=O)O)OO [5(S)-HpETE]
HSD17B13 Enzymatic Activity Relative Light Units [1]: 225600 RLU
HSD17B13 Enzymatic Activity Percent Estradiol Control [2]: −4.55%

CCCCC/C=C\C/C=C\C/C=C\CC#CCCCC(=O)O [5,6-dehydro Arachidonic Acid]
HSD17B13 Enzymatic Activity Relative Light Units [1]: 210160 RLU
HSD17B13 Enzymatic Activity Percent Estradiol Control [2]: −8.68%

CCCCC/C=C\C/C=C\C/C=C\C=C\C(=O)CCCC(=O)O [5-OxoETE]
HSD17B13 Enzymatic Activity Relative Light Units [1]: 261280 RLU
HSD17B13 Enzymatic Activity Percent Estradiol Control [2]: −1.90%

CCCCC/C=C\C[C@@H]1[C@H](/C=C/C(O)CCCC(=O)O)[C@@H](O)C[C@H]1O (stereo partly drawn) [5-iPF2α-VI]
HSD17B13 Enzymatic Activity Relative Light Units [1]: 293200 RLU
HSD17B13 Enzymatic Activity Percent Estradiol Control [2]: 0.80%

C[C@]12CCC(=O)C[C@@H]1CC[C@@H]1[C@@H]2CC[C@]2(C)C(=O)CC[C@@H]12 [5a-androstanedione]
HSD17B13 Enzymatic Activity Relative Light Units (Steroid Library, 50 μM steroid): 181840 RLU
HSD17B13 Enzymatic Activity Percent Estradiol Control (Steroid Library, 50 μM steroid): 0.37%

CC(=O)OC1=CC[C@H]2[C@@H]3CC[C@H]4CC=CC[C@]4(C)[C@H]3CC[C@]12C [5alpha-Androsta-2,16-dien-17-yl acetate]
HSD17B13 Enzymatic Activity Relative Light Units (Steroid Library, 50 μM steroid): 197640 RLU
HSD17B13 Enzymatic Activity Percent Estradiol Control (Steroid Library, 50 μM steroid): 0.65%

C[C@]12CCC(=O)C[C@@H]1CC[C@@H]1[C@@H]2C(=O)C[C@]2(C)C(=O)CC[C@@H]12 [5alpha-Androstane-3,11,17-trione]
HSD17B13 Enzymatic Activity Relative Light Units (Steroid Library, 50 μM steroid): 228280 RLU
HSD17B13 Enzymatic Activity Percent Estradiol Control (Steroid Library, 50 μM steroid): 1.18%

C[C@]12CCC(=O)C[C@@H]1CC[C@@H]1[C@@H]2[C@@H](O)C[C@@]2(C)[C@H]1CC[C@]2(O)C(=O)CO [5alpha-dihydrocortisol]
HSD17B13 Enzymatic Activity Relative Light Units (Steroid Library, 50 μM steroid): 139720 RLU
HSD17B13 Enzymatic Activity Percent Estradiol Control (Steroid Library, 50 μM steroid): −0.36%

CCCCC[C@H](O)/C=C/C=C\C=C\C=C\[C@H](O)[C@@H](O)CCCC(=O)O [6(S)-Lipoxin A4]
HSD17B13 Enzymatic Activity Relative Light Units [1]: 383000 RLU
HSD17B13 Enzymatic Activity Percent Estradiol Control [2]: 7.90%

CCCCCC(=O)CC[C@@H]1[C@@H](CC(=O)CCCCC(=O)O)[C@@H](O)C[C@H]1O [6,15-diketo-13,14-dihydro Prostaglandin F1α]
HSD17B13 Enzymatic Activity Relative Light Units [1]: 262680 RLU
HSD17B13 Enzymatic Activity Percent Estradiol Control [2]: −1.61%

CCCCC/C=C\C/C=C\C[C@H]1O[C@H]1C/C=C\CCCC(=O)NCCO [8(9)-EET Ethanolamide]
HSD17B13 Enzymatic Activity Relative Light Units [1]: 446000 RLU
HSD17B13 Enzymatic Activity Percent Estradiol Control [2]: 9.14%

CCCCC[C@H](O)/C=C/C=C\C=C\[C@@H](O)C/C=C\CCCC(=O)O [8(S),15(S)-DiHETE]
HSD17B13 Enzymatic Activity Relative Light Units [1]: 410440 RLU
HSD17B13 Enzymatic Activity Percent Estradiol Control [2]: 9.19%

CCCCC/C=C\C/C=C\C=C\[C@@H](O)CCCCCCC(=O)O [8(S)-HETrE]
HSD17B13 Enzymatic Activity Relative Light Units [1]: 412960 RLU
HSD17B13 Enzymatic Activity Percent Estradiol Control [2]: 9.38%

CC/C=C\C[C@H](O)/C=C/[C@@H]1[C@H](C/C=C\CCCC(=O)O)[C@@H](O)C[C@H]1O [8-iso Prostaglandin F3α]
HSD17B13 Enzymatic Activity Relative Light Units [1]: 361040 RLU
HSD17B13 Enzymatic Activity Percent Estradiol Control [2]: 6.16%

— patent US11479802B2, “Assays for screening activity of modulators of members of the hydroxy steroid (17-beta) dehydrogenase (HSD17B) family” (Regeneron Pharmaceuticals, Inc., priority 2017, dated 2022)
